Results published in ChEMBL document CHEMBL1201862, “PubChem BioAssay data set” (2004).
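In this assay, cells in 96-well plates receive the compound at five concentrations for 48 hours. Endpoints are linearly interpolated between the surrounding concentrations. At the GI50, growth is halved.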 Activity calls are given as the source filed them. Cut-off read from the data, not from the text of the source: active = GI50 up to about 1.1 µM and inactive = higher.

Assays:
Assay in all cases: NCI-60 cell line screen, 48 h
M14 = system: M14
CAKI-1 = system: CAKI-1
K562 = system: K562
LOX IMVI = system: LOX IMVI
CCRF-CEM = system: CCRF-CEM
NCI-H23 = system: NCI-H23
RPMI-8226 = system: RPMI-8226
SR = system: SR
TK-10 = system: TK-10
DU-145 = system: DU-145
BT-549 = system: BT-549
ACHN = system: ACHN
HL-60 = system: HL-60
SK-OV-3 = system: SK-OV-3
OVCAR-5 = system: OVCAR-5
HOP-92 = system: HOP-92
HOP-62 = system: HOP-62
MDA-N = system: MDA-N
Malme-3M = system: Malme-3M
KM12 = system: KM12

SMILES | GI50 (M14) | GI50 (CAKI-1) | GI50 (K562) | GI50 (LOX IMVI) | GI50 (CCRF-CEM) | GI50 (NCI-H23) | GI50 (RPMI-8226) | GI50 (SR) | GI50 (TK-10) | GI50 (DU-145) | GI50 (BT-549) | GI50 (ACHN) | GI50 (HL-60) | GI50 (SK-OV-3) | GI50 (OVCAR-5) | GI50 (HOP-92) | GI50 (HOP-62) | GI50 (MDA-N) | GI50 (Malme-3M) | GI50 (KM12)
COc1ccc2c(c1)OC(c1cccnc1)C(c1ccccc1)C2=O (stereo not given) | > 100 µM (inactive) | > 100 µM (inactive) | > 100 µM (inactive) | > 100 µM (inactive) | > 100 µM (inactive) | > 100 µM (inactive) | > 100 µM (inactive) | > 100 µM (inactive) | > 100 µM (inactive) | > 100 µM (inactive) | > 100 µM (inactive) | > 100 µM (inactive) | > 100 µM (inactive) | 59.4 µM (inactive) | > 100 µM (inactive) | 49.5 µM (inactive) | 25.9 µM (inactive) | > 100 µM (inactive) | > 100 µM (inactive) | > 100 µM (inactive)
COc1ccc(Cc2cc(OC)c(OC)c(OC)c2)cc1 | 0.411 µM (active) | 0.254 µM (active) | 0.0665 µM (active) | 0.393 µM (active) | 0.165 µM (active) | 0.395 µM (active) | 0.298 µM (active) | 0.0436 µM (active) | 6.79 µM (inactive) | 0.328 µM (active) | 1.54 µM (inactive) | 0.771 µM (active) | 0.0586 µM (active) | 0.308 µM (active) | 8.83 µM (inactive) | 0.805 µM (active) | 0.411 µM (active) | 0.0245 µM (active) | 0.387 µM (active) | 0.144 µM (active)
O=C(CN1CCN(Cc2ccccc2)CC1)N1CCCn2c1nc1ccccc1c2=O | > 100 µM (inactive) | > 100 µM (inactive) | > 100 µM (inactive) | > 100 µM (inactive) | > 100 µM (inactive) | > 100 µM (inactive) | > 100 µM (inactive) | > 100 µM (inactive) | > 100 µM (inactive) | > 100 µM (inactive) | > 100 µM (inactive) | > 100 µM (inactive) | > 100 µM (inactive) | > 100 µM (inactive) | > 100 µM (inactive) | 4.58 µM (inactive) | > 100 µM (inactive) | > 100 µM (inactive) | > 100 µM (inactive) | > 100 µM (inactive)
Nc1ncnc2c1ncn2[C@@H]1O[C@H](C(=O)O)[C@@H](O)[C@H]1O [5'-CARBOXY ADENOSINE] | > 100 µM (inactive) | > 100 µM (inactive) | > 100 µM (inactive) | > 100 µM (inactive) | > 100 µM (inactive) | > 100 µM (inactive) | > 100 µM (inactive) | > 100 µM (inactive) | > 100 µM (inactive) | > 100 µM (inactive) | > 100 µM (inactive) | > 100 µM (inactive) | > 100 µM (inactive) | > 100 µM (inactive) | > 100 µM (inactive) | > 100 µM (inactive) | > 100 µM (inactive) | > 100 µM (inactive) | > 100 µM (inactive) | > 100 µM (inactive)
Nc1nc(NCC2(CO)CC(CCc3ccccc3)C2)cc(=O)[nH]1 (stereo not given) | > 100 µM (inactive) | > 100 µM (inactive) | 26.2 µM (inactive) | > 100 µM (inactive) | 78.2 µM (inactive) | > 100 µM (inactive) | 46.7 µM (inactive) | > 100 µM (inactive) |  | > 100 µM (inactive) | > 100 µM (inactive) |  | 82.8 µM (inactive) | 22.2 µM (inactive) | > 100 µM (inactive) | > 100 µM (inactive) | > 100 µM (inactive) | > 100 µM (inactive) | > 100 µM (inactive) | > 100 µM (inactive)
NNC(=O)CNc1cccc(Br)c1 | > 100 µM (inactive) | > 100 µM (inactive) | > 100 µM (inactive) | > 100 µM (inactive) |  | > 100 µM (inactive) | > 100 µM (inactive) | > 100 µM (inactive) | > 100 µM (inactive) | > 100 µM (inactive) | > 100 µM (inactive) | > 100 µM (inactive) | 74.8 µM (inactive) | > 100 µM (inactive) | > 100 µM (inactive) | > 100 µM (inactive) | > 100 µM (inactive) | > 100 µM (inactive) | > 100 µM (inactive) | > 100 µM (inactive)
C=C(C)C(=O)OC1CC2(C)OC(=CC2=O)C(C)CC2OC(=O)C(=C)C12 (stereo not given) | 5.48 µM (inactive) | 2.7 µM (inactive) | 0.656 µM (active) | 2.94 µM (inactive) | 0.839 µM (active) | 8.89 µM (inactive) | 3.3 µM (inactive) | 1.63 µM (inactive) | 7.41 µM (inactive) | 4.74 µM (inactive) | 6.25 µM (inactive) | 2.8 µM (inactive) | 0.461 µM (active) | 34.9 µM (inactive) | 10.4 µM (inactive) | 5.56 µM (inactive) | 19.2 µM (inactive) | 3.01 µM (inactive) | 3.44 µM (inactive) | 19.8 µM (inactive)
C/C(=N\N=C(/S)N(C)C)c1cccc[n+]1[O-] | 25.9 µM (inactive) | 32.4 µM (inactive) | 0.631 µM (active) | 20.5 µM (inactive) | 0.565 µM (active) | 12.6 µM (inactive) | 3.62 µM (inactive) | 1.23 µM (inactive) | 82.2 µM (inactive) | 59 µM (inactive) | 49.9 µM (inactive) | 38.2 µM (inactive) | 1.03 µM (active) | 70.5 µM (inactive) | 35.9 µM (inactive) | 22.3 µM (inactive) | 18 µM (inactive) | 95.1 µM (inactive) | 43.7 µM (inactive) | 45.5 µM (inactive)
CN(/N=C(\C(=O)O)c1ccccc1)C1=NCCCCN1 |  | > 100 µM (inactive) | > 100 µM (inactive) | > 100 µM (inactive) | > 100 µM (inactive) | > 100 µM (inactive) | > 100 µM (inactive) | > 100 µM (inactive) | > 100 µM (inactive) | > 100 µM (inactive) | > 100 µM (inactive) | > 100 µM (inactive) | > 100 µM (inactive) | > 100 µM (inactive) | > 100 µM (inactive) | > 100 µM (inactive) | > 100 µM (inactive) | > 100 µM (inactive) | > 100 µM (inactive) | > 100 µM (inactive)
CC(=O)OCC1OC(N2C(=O)/C(=C\c3ccc(Cl)cc3)C(N)=Nc3ccccc32)C(OC(C)=O)C(OC(C)=O)C1OC(C)=O (stereo not given) | 20.2 µM (inactive) | 37.3 µM (inactive) | 12.5 µM (inactive) | 17.1 µM (inactive) |  | 25.9 µM (inactive) | 2.24 µM (inactive) | 16.4 µM (inactive) | 28.1 µM (inactive) | 28.8 µM (inactive) | 27.9 µM (inactive) | 20.2 µM (inactive) | 33 µM (inactive) | 51.1 µM (inactive) | 33.4 µM (inactive) | 17.2 µM (inactive) | 29.2 µM (inactive) | 17.6 µM (inactive) | 28.2 µM (inactive) | 14.9 µM (inactive)
O=C1OCC2OC(=O)c3cc(O)c(O)c(O)c3-c3c(O)c(O)c(O)c4c3C(=O)OC(C2OC(=O)c2cc(O)c(O)c(O)c2-c2c1cc(O)c(O)c2O)C1OC(=O)c2c-4c(O)c(O)c(O)c2[C@@H]1C(O)C(O)C(O)C(O)CO (stereo not given in full) | 17.8 µM (inactive) | 13.6 µM (inactive) | 10.5 µM (inactive) | 2.25 µM (inactive) | 4.75 µM (inactive) | 19.2 µM (inactive) | 29 µM (inactive) | 22.5 µM (inactive) |  | 20.2 µM (inactive) | 22.8 µM (inactive) | 16.5 µM (inactive) | 17 µM (inactive) | 27.4 µM (inactive) | 16 µM (inactive) | 18.2 µM (inactive) | 17.9 µM (inactive) | 7.11 µM (inactive) | 18.1 µM (inactive) | 22 µM (inactive)
COc1c2c(cc3c1OCO3)[C@]13C=C[C@H](OC)C[C@H]1N(C2)CC3O (stereo not given in full) | > 100 µM (inactive) | > 100 µM (inactive) |  | > 100 µM (inactive) | > 100 µM (inactive) | > 100 µM (inactive) | > 100 µM (inactive) | 18.4 µM (inactive) | > 100 µM (inactive) | > 100 µM (inactive) | > 100 µM (inactive) | > 100 µM (inactive) | > 100 µM (inactive) | > 100 µM (inactive) | > 100 µM (inactive) | > 100 µM (inactive) | > 100 µM (inactive) | > 100 µM (inactive) | > 100 µM (inactive) | > 100 µM (inactive)
CC1CCCN(CP(=O)(c2ccccc2)c2ccccc2)C1 (stereo not given) | > 100 µM (inactive) | > 100 µM (inactive) | > 100 µM (inactive) | > 100 µM (inactive) |  | > 100 µM (inactive) | 43.5 µM (inactive) | > 100 µM (inactive) | > 100 µM (inactive) | > 100 µM (inactive) | > 100 µM (inactive) | > 100 µM (inactive) | 13.6 µM (inactive) | > 100 µM (inactive) | > 100 µM (inactive) | > 100 µM (inactive) | > 100 µM (inactive) | > 100 µM (inactive) | > 100 µM (inactive) | > 100 µM (inactive)
Cc1nc(N)c(N2CCNCC2)c(O)n1 | > 100 µM (inactive) |  | > 100 µM (inactive) | > 100 µM (inactive) | > 100 µM (inactive) | > 100 µM (inactive) | > 100 µM (inactive) | > 100 µM (inactive) | > 100 µM (inactive) | > 100 µM (inactive) | > 100 µM (inactive) | > 100 µM (inactive) | > 100 µM (inactive) |  | > 100 µM (inactive) | > 100 µM (inactive) | > 100 µM (inactive) | > 100 µM (inactive) | > 100 µM (inactive) | > 100 µM (inactive)
